Consider 20 molecules from USRE47689E1, “Compounds for treating spinal muscular atrophy” (PTC Therapeutics, Inc., priority 2011, dated 2019).

Series [1] relates to SMN2 minigene (full length SMN2 minigene mRNA containing SMN2 exon 7). Description: SMN2 minigene mRNA splicing RT-qPCR assay in cultured cells. Type of series: cell-based, human. As to conditions: Homo sapiens, HEK293-H, read-out: EC1.5x for production of full length SMN2 mRNA. A digest of the protocol: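 Read-out: full-length (exon 7-included) SMN2 minigene mRNA by multiplex RT-qPCR with GAPDH, efficiency-corrected (1+E)^−Ct, GAPDH-normalized and divided by vehicle. Stably transfected HEK293H cells, 24 h compound exposure, duplicates per concentration. Value is EC1.5x, reported as star ranges.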

Series [2] relates to Smn protein. Description: Smn protein assay in cultured cells (SMN HTRF). Type of series: cell-based, human. Conditions: for EC1.5x (concentration giving 1.5-fold Smn protein increase): read-out: EC1.5x for Smn protein expression. A digest of the protocol:
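Lysates in RIPA with protease inhibitors are incubated overnight at room temperature with HTRF anti-SMN antibodies. EC1.5x is derived from fold increase in ΔF over vehicle.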

[3] abbreviates: HEK293H cells stably transfected with SMN2-A minigene, 24 hours, 7-point concentration curve, 1.5-fold relative to vehicle-treated cells.
Where [4] appears, read: SMA Type 1 patient fibroblast cells (GM03813), 48 hours, 7-point concentration curve, SMN HTRF, concentration producing 1.5 times Smn protein vs DMSO vehicle control.
[5] abbreviates: SMA patient fibroblast cells, 48 hours, 7-point concentration data, fold increase relative to vehicle control (SMN HTRF).

Where two headings read alike, the source gives them in different places.

With `Cc1cn2cc(-c3cc4ccc(C5=CCN(CCO)CC5)cc4oc3=O)nc2c(C)n1` [Compound 801, 3-(6,8-dimethylimidazo[1,2-a]pyrazin-2-yl)-7-[1-(2-hydroxyethyl)-1,2,3,6-tetrahydropyridin-4-yl]-2H-chromen-2-one], the melting point is 172 to 214 °C. Moreover, the EC (1.5-fold) in series [1] (24 h) was less than 0.1 µM. In addition, in series [2], the “maximum fold (Fold) increase of Smn protein” value (“maximum fold (Fold) increase” below) was “**** (key: *: maximum fold increase of ≤1.2; **: fold increase between >1.2 and ≤1.35; ***: fold increase between >1.35 and ≤1.5; ****: fold increase between >1.5 and ≤1.65; *****: fold increase >1.65)”; the EC1.5x (concentration giving 1.5-fold Smn protein increase) is less than 300 nM.
`Cc1cn2cc(-c3cc4ccc(N5CCC6(CCNC6)C5)cc4oc3=O)nc2c(C)n1` (stereo not drawn) [Compound 945, 7-(2,7-diazaspiro[4.4]non-2-yl)-3-(6,8-dimethylimidazo[1,2-a]pyrazin-2-yl)-2H-chromen-2-one]: the melting point was 190 to 200 °C. Besides, the EC (1.5-fold) in series [1] (setting [3]) is less than 0.1 µM. Further, in series [2] (setting [4]), the EC1.5x (concentration giving 1.5-fold Smn protein increase) was less than 300 nM. Also, the “maximum fold (Fold) increase” value in series [2] (setting [5]) is reported as “***** (fold increase >1.65)”.
As for `Cc1cccn2cc(-c3cc4ccc(N5CCN6CCC5CC6)cc4oc3=O)nc12` [Compound 505, 7-(1,4-diazabicyclo[3.2.2]non-4-yl)-3-(8-methylimidazo[1,2-a]pyridin-2-yl)-2H-chromen-2-one], the melting point was 278 °C (dec.). Also, the EC (1.5-fold) in series [1] (24 h) lay in the range of 3 to 30 µM. For the same molecule, in series [2] (setting [5]), the “maximum fold (Fold) increase” value was “* (maximum fold increase of ≤1.2)”.
Regarding `Cc1cn2cc(-c3cc4ccc(O[C@@H]5CCN(C(C)CO)C5)cc4oc3=O)nc2c(C)n1` (stereo partly drawn) [Compound 893, 3-(6,8-dimethylimidazo[1,2-a]pyrazin-2-yl)-7-{[(3R)-1-(1-hydroxypropan-2-yl)pyrrolidin-3-yl]oxy}-2H-chromen-2-one], the melting point fell in the range of 196 to 202 °C. The EC (1.5-fold) in series [1] (setting [3]) was less than 0.1 µM. Moreover, in series [2] (setting [4]), the EC1.5x (concentration giving 1.5-fold Smn protein increase) is less than 300 nM. In addition, the “maximum fold (Fold) increase” value in series [2] (setting [5]) is given as “***** (fold increase >1.65)”.
For `Cc1cn2cc(-c3cc4ccc(N5CCN6CCC[C@H]6C5)cc4oc3=O)cnc2n1` [Compound 649, 7-[(8aS)-hexahydropyrrolo[1,2-a]pyrazin-2(1H)-yl]-3-(2-methylimidazo[1,2-a]pyrimidin-6-yl)-2H-chromen-2-one], in that order: 295 to 297 °C, 0.1 to 0.3 µM, 300 to 1000 nM and “***** (fold increase >1.65)”.
In turn, `Cc1ccc(-c2cc3ccc(N4CCNCC4)cc3oc2=O)cn1` [Compound 163, 3-(6-methylpyridin-3-yl)-7-(piperazin-1-yl)-2H-chromen-2-one] gave a melting point of 148 to 150 °C. In addition, the EC (1.5-fold) in series [1] (24 h) fell in the range of 3 to 30 µM. Moreover, the “maximum fold (Fold) increase” value in series [2] (setting [5]) is recorded as “* (maximum fold increase of ≤1.2)”.
Consider `CCN1CCC[C@H]2CN(c3ccc4cc(-c5cn6cc(C)nc(C)c6n5)c(=O)oc4c3)C[C@H]21` [Compound 803, 3-(6,8-dimethylimidazo[1,2-a]pyrazin-2-yl)-7-[(4aS,7aS)-1-ethyloctahydro-6H-pyrrolo[3,4-b]pyridin-6-yl]-2H-chromen-2-one], for which the melting point lay in the range of 217 to 221 °C. For the same molecule, the EC (1.5-fold) in series [1] (setting [3]) was less than 0.1 µM. In series [2] (setting [5]), the “maximum fold (Fold) increase” value is “*** (fold increase between >1.35 and ≤1.5)”.
In the case of `Cc1cn2cc(-c3cc4ccc(OC5CCN(C(C)C)CC5)cc4oc3=O)nc2c(C)n1` [Compound 901, 3-(6,8-dimethylimidazo[1,2-a]pyrazin-2-yl)-7-{[1-(propan-2-yl)piperidin-4-yl]oxy}-2H-chromen-2-one], the melting point was in the range of 185 to 191 °C. Besides, the EC (1.5-fold) in series [1] (setting [3]) was less than 0.1 µM. In addition, in series [2] (setting [4]), the EC1.5x (concentration giving 1.5-fold Smn protein increase) was less than 300 nM. The “maximum fold (Fold) increase” value in series [2] (setting [5]) is given as “***** (fold increase >1.65)”.
In the case of `Cc1cn2cc(-c3cc4ccc(N5CCN(C(C)C)[C@@H](C)C5)cc4oc3=O)cc2c(C)n1` [Compound 768, 3-(1,3-dimethylpyrrolo[1,2-a]pyrazin-7-yl)-7-[(3S)-3-methyl-4-(propan-2-yl)piperazin-1-yl]-2H-chromen-2-one], the melting point fell in the range of 153 to 156 °C. Also, the EC (1.5-fold) in series [1] (setting [3]) is less than 0.1 µM. Further, in series [2] (setting [4]), the EC1.5x (concentration giving 1.5-fold Smn protein increase) was less than 300 nM. Further, in series [2] (setting [5]), the “maximum fold (Fold) increase” value was “**** (fold increase between >1.5 and ≤1.65)”.
Molecule `Cc1cn2cc(-c3cc4ccc(CCCNCc5ccsc5)cc4oc3=O)nc2c(C)n1` [Compound 934, 3-(6,8-dimethylimidazo[1,2-a]pyrazin-2-yl)-7-{3-[(thiophen-3-ylmethyl)amino]propyl}-2H-chromen-2-one] came in with a melting point of 149 to 152 °C. In addition, the EC (1.5-fold) in series [1] (setting [3]) is less than 0.1 µM. Further, the “maximum fold (Fold) increase” value in series [2] (setting [5]) is “** (fold increase between >1.2 and ≤1.35)”.
The molecule `Cc1ccc2nc(-c3cc4ccc(N(C)Cc5cccnc5)cc4oc3=O)cn2c1` [Compound 221, 3-(6-methylimidazo[1,2-a]pyridin-2-yl)-7-[methyl(pyridin-3-ylmethyl)amino]-2H-chromen-2-one] displayed a melting point of 220 to 223 °C. Further, the EC (1.5-fold) in series [1] (setting [3]) lay within 1 to 3 µM. In addition, the “maximum fold (Fold) increase” value in series [2] (setting [5]) was “* (maximum fold increase of ≤1.2)”.
For `Cc1cn2cc(-c3cc4ccc(N5CCC(N(C)C)C5)cc4oc3=O)nc2s1` (stereo not drawn) [Compound 154, 7-[3-(dimethylamino)pyrrolidin-1-yl]-3-(2-methylimidazo[2,1-b][1,3]thiazol-6-yl)-2H-chromen-2-one], in that order: 180 to 183 °C, 3 to 30 µM and “* (maximum fold increase of ≤1.2)”.
The like results for `Cc1ccc2nc(-c3cc4ccc(N5CCC(N)CC5)cc4oc3=O)cn2c1` [Compound 219, 7-(4-aminopiperidin-1-yl)-3-(6-methylimidazo[1,2-a]pyridin-2-yl)-2H-chromen-2-one] were, in that order, 250 to 252 °C, 3 to 30 µM and “* (maximum fold increase of ≤1.2)”.
Take `Cc1cn2cc(-c3cc4ccc(N5CCC(N(CCO)CCO)CC5)cc4oc3=O)nc2c(C)n1` [Compound 928, 7-{4-[bis(2-hydroxyethyl)amino]piperidin-1-yl}-3-(6,8-dimethylimidazo[1,2-a]pyrazin-2-yl)-2H-chromen-2-one]: the melting point was 209 to 212 °C. Further, the EC (1.5-fold) in series [1] (setting [3]) fell in the range of 0.1 to 0.3 µM. In addition, in series [2] (setting [5]), the “maximum fold (Fold) increase” value was “*** (fold increase between >1.35 and ≤1.5)”.
Turning to `COc1cc(-c2cc3ccc(N4CCNCC4)cc3oc2=O)ccc1F` [Compound 576, 3-(4-fluoro-3-methoxyphenyl)-7-(piperazin-1-yl)-2H-chromen-2-one], the melting point was in the range of 153 to 155 °C. Also, in series [1] (setting [3]), the EC (1.5-fold) fell in the range of 1 to 3 µM. Further, the “maximum fold (Fold) increase” value in series [2] (setting [5]) is “* (maximum fold increase of ≤1.2)”.
`Cc1ccn2nc(-c3cc4ccc(N5CCCN(C)CC5)cc4oc3=O)cc2c1` [Compound 310, 7-(4-methyl-1,4-diazepan-1-yl)-3-(5-methylpyrazolo[1,5-a]pyridin-2-yl)-2H-chromen-2-one] came in with a melting point of 175 to 177 °C. Besides, the EC (1.5-fold) in series [1] (setting [3]) lay within 0.3 to 1 µM. In series [2] (setting [5]), the “maximum fold (Fold) increase” value was “** (fold increase between >1.2 and ≤1.35)”.
Consider `Cc1cc(F)cn2cc(-c3cc4ccc(N5CCCN(C)CC5)cc4oc3=O)nc12` [Compound 330, 3-(6-fluoro-8-methylimidazo[1,2-a]pyridin-2-yl)-7-(4-methyl-1,4-diazepan-1-yl)-2H-chromen-2-one], for which the melting point lay within 191 to 198 °C. In addition, the EC (1.5-fold) in series [1] (setting [3]) is 0.3 to 1 µM. In addition, in series [2] (setting [5]), the “maximum fold (Fold) increase” value is “* (maximum fold increase of ≤1.2)”.
`Cc1cn2cc(-c3cc4ccc(OCCN(CCO)CCO)cc4oc3=O)nc2c(C)n1` [Compound 896, 7-{2-[bis(2-hydroxyethyl)amino]ethoxy}-3-(6,8-dimethylimidazo[1,2-a]pyrazin-2-yl)-2H-chromen-2-one] gave a melting point of 199 to 202 °C. Further, the EC (1.5-fold) in series [1] (setting [3]) was less than 0.1 µM. For the same molecule, the EC1.5x (concentration giving 1.5-fold Smn protein increase) in series [2] (setting [4]) is less than 300 nM. In addition, the “maximum fold (Fold) increase” value in series [2] (setting [5]) is recorded as “***** (fold increase >1.65)”.
Take `Cc1ccn2nc(-c3cc4ccc(N5C[C@@H](C)N[C@@H](C)C5)cc4oc3=O)cc2c1` [Compound 304, 7-[(3R,5S)-3,5-dimethylpiperazin-1-yl]-3-(5-methylpyrazolo[1,5-a]pyridin-2-yl)-2H-chromen-2-one]: the melting point is 200 to 202 °C. For the same molecule, in series [1] (setting [3]), the EC (1.5-fold) fell in the range of 0.1 to 0.3 µM. Besides, the EC1.5x (concentration giving 1.5-fold Smn protein increase) in series [2] (setting [4]) fell in the range of 1000 to 3000 nM. In addition, the “maximum fold (Fold) increase” value in series [2] (setting [5]) was “*** (fold increase between >1.35 and ≤1.5)”.
Take `Cc1cn2cc(-c3cc4ccc(N5CCCN(C)CC5)cc4oc3=O)cnc2n1` [Compound 662, 7-(4-methyl-1,4-diazepan-1-yl)-3-(2-methylimidazo[1,2-a]pyrimidin-6-yl)-2H-chromen-2-one]: the melting point is 286 to 289 °C. Besides, the EC (1.5-fold) in series [1] (setting [3]) was less than 0.1 µM. In addition, the EC1.5x (concentration giving 1.5-fold Smn protein increase) in series [2] (setting [4]) is 1000 to 3000 nM. Also, the “maximum fold (Fold) increase” value in series [2] (setting [5]) was “*** (fold increase between >1.35 and ≤1.5)”.
